Series [1] addresses T1, Recombinant HIV-1 protease (Human immunodeficiency virus type 1 group M subtype B, UniProt P04585).
T1 construct: Recombinant HIV-1 protease (>96% purity); purchased Bachem Bioscience, Inc. (King of Prussia, Pa.)
Put plainly: HIV Protease Assay (Ki). Conditions: Inhibition of HIV Protease Ki, pH 6.2, 37° C., 40 μM substrate III. It counts as biochemical. As to the method: Recombinant HIV-1 protease (>96% purity) and HIV protease substrate III (the undecapeptide H-His-Lys-Ala-Arg-Val-Leu-Nph-Glu-Ala-Nle-Ser-NH2, 97% purity) were purchased from Bachem Bioscience, Inc. (King of Prussia, Pa.).
The methods employed follow the procedures of Tummino, et al., Archives of Biochemistry and Biophysics, 1995;316:523). […] (total volume, […]). […] The final inhibitor concentrations used were 0 (0.1, 0.2, in some experiments), 0.5, 1, 2, 5, 10, 20, 50, and 100 μM. The solution was mixed, incubated for 5 minutes and the reaction quenched by addition of trifluoracetic acid, 2% final. The (leu-p-nitro-phe) bond of the substrate is cleaved by the enzyme and substrate and products separated by reverse-phase HPLC (high pressure liquid chromatography). Absorbance was measured at 220 nm, peak areas determined, and percentage conversion to product used to calculate percentage control (=[% conversion (+inhibitor)/% conversion (−inhibitor)]×100).
Ki means inhibitory constant; it approximately the equilibrium binding constant for the binding of the inhibitor to the free enzyme.

In series [2] the test system is HIV infected lymphocyte derived CEM cells. Description: Cellular Infection Assay, XTT cytopathic procedure in CEM cells (antiviral efficacy). The format is cell-based. As to conditions: Human immunodeficiency virus 1, CCRF-CEM, read-out: Antiviral Efficacy EC50, CEM cells, 50% protection against HIV cytopathic effects. As to the method:
Compounds were tested in lymphocyte derived CEM cells using the XTT cytopathic procedures and were performed at Southern Research Institute (Buckheit, et al., Antiviral Res., 1993;21:247; see also Weislow, et al., J. Nat. Cancer Inst., 1989;81:577). Compound concentrations were 0.32, 1, 3.2, 10, 32, and 100 μM. The EC50 represents the concentration of agent, which reduces HIV cytopathic effects 50% relative to untreated control. Cellular toxicity of the agents are estimated from the TC50 which represents the concentration of the agent which inhibits 50% of the viability of uninfected cells.
EC50 indicates the concentration of the drug which provide 50% protection against HIV.
In general terms: Formazan colour is commonly taken as a measure of viable cells.

Series [3] in a line: Cellular toxicity in uninfected CEM cells (XTT). It counts as cell-based. Conditions: human, uninfected CEM cells (lymphocyte derived), cytotoxicity in 50% of uninfected CEM cells; read-out: TC50 (the source's name). As to the method:
Compound concentrations were 0.32, 1, 3.2, 10, 32, and 100 μM.

One may read the melting point as the temperature of the solid-liquid transition. The Ki is the dissociation constant of the complex between target and ligand, obtained from inhibition or displacement. The term EC50 denotes the concentration that produces a half-maximal response.

`CCCN(C1=C(O)CC(CCc2ccc(O)cc2)(C(C)C)OC1=O)c1cccc(NS(=O)(=O)c2cccs2)c1` (centres unmarked) had a melting point of 85 to 87 °C. Still for that read-out and setting: the same measure for `CCCN(C1=C(O)CC(CCc2ccc(O)cc2)(C2CCCC2)OC1=O)c1cccc(NS(=O)(=O)c2ccc(C(F)(F)F)cn2)c1` (centres unmarked): 104 to 106 °C; for `CCCCN(C1=C(O)CC(CCc2cccc(O)c2)(C2CCCC2)OC1=O)c1ccccc1` (centres unmarked): 64 to 66 °C; for `CCCN(C1=C(O)CC(CCc2ccc(N)cc2)(C(C)C)OC1=O)c1cccc(NS(=O)(=O)c2ccc(C(F)(F)F)cn2)c1` (centres unmarked): 170 to 172 °C. On the same count and under the same terms, the same measure for `CC(C)C1(CCc2ccc(O)cc2)CC(O)=C(N(c2ccccc2)c2ccccc2)C(=O)O1` (centres unmarked): 83 to 85 °C; for `CCCN(C1=C(O)CC(CCc2ccc(O)cc2)(C(C)C)OC1=O)c1cccc(C(=O)OC)c1` (centres unmarked): 96 to 98 °C; for `CCCN(C1=C(O)CC(CCc2ccc(O)cc2)(C(C)C)OC1=O)c1cc(Cl)cc(Cl)c1` (centres unmarked): 86 to 88 °C. Same read-out and setting: the same measure for `CCCN(C1=C(O)CC(CCc2ccccc2)(C(C)C)OC1=O)c1ccccc1` (centres unmarked): 160 to 162 °C. In turn, `CCCN(C1=C(O)CC(CCc2ccsc2)(C(C)C)OC1=O)c1ccccc1` (centres unmarked) yielded a melting point of 53 to 55 °C.

Consider `CCCN(C1=C(O)CC(CCc2ccc(O)cc2)(C2CCCC2)OC1=O)c1ccccc1` (centres unmarked), for which the melting point worked out at 95 °C.

Turning to `CCN(C1=C(O)CC(CCc2ccc(O)cc2)(C(C)C)OC1=O)c1ccccc1` (centres unmarked), the melting point was in the range of 63 to 65 °C. The same measure, in the same setting: to `O=C1OC(CCc2cccc(O)c2)(C2CCCC2)CC(O)=C1N(c1ccccc1)c1ccccc1` (centres unmarked) belongs 90 to 92 °C; to `CC(C)C1(CCc2ccc(O)cc2)CC(O)=C(N(c2ccccc2)C2CCCCC2)C(=O)O1` (centres unmarked), 104 to 106 °C; to `CC(C)C1(CCc2ccc(O)cc2)CC(O)=C(N(c2ccccc2)C2CCCC2)C(=O)O1` (centres unmarked), 83 to 85 °C. With `COc1ccc(N(C2=C(O)CC(CCc3ccc(O)cc3)(C(C)C)OC2=O)c2ccccc2)cc1` (centres unmarked), the melting point was 95 to 96 °C. The molecule `CCCN(C1=C(O)CC(C)(CCc2ccc(O)cc2)OC1=O)c1ccccc1` (centres unmarked) yielded a melting point of 179 to 181 °C.

Consider `CC(C)C1(CCc2ccc(O)cc2)CC(O)=C(N(c2ccccc2)c2cccc(O)c2)C(=O)O1` (centres unmarked), for which the melting point lay within 95 to 97 °C. The same measure, in the same setting: the same measure for `CCCCC1(CCc2ccc(O)cc2)CC(O)=C(N(CCC)c2ccccc2)C(=O)O1` (centres unmarked): 58 to 60 °C; for `CCCN(C1=C(O)CC(CCc2ccc(O)cc2)(C2CC2)OC1=O)c1ccccc1` (centres unmarked): 74 to 75 °C; for `CC(C)N(C1=C(O)CC(CCc2ccc(O)cc2)(C(C)C)OC1=O)c1ccccc1` (centres unmarked): 75 to 77 °C. Same read-out and setting: the same measure for `CC(C)C1(CCc2ccc(O)cc2)CC(O)=C(N(CCO)c2ccccc2)C(=O)O1` (centres unmarked): 85 to 86 °C. As to `CCCN(C1=C(O)CC(CCc2ccc3c(c2)OCO3)(C(C)C)OC1=O)c1ccccc1` (centres unmarked), the melting point lay within 93 to 95 °C. Same read-out and setting: the same measure for `CC(C)CCN(C1=C(O)CC(CCc2ccc(O)cc2)(C(C)C)OC1=O)c1ccccc1` (centres unmarked): 70 to 72 °C; for `CC(C)C1(CCc2ccc(O)cc2)CC(O)=C(N(c2ccccc2)C2CC2)C(=O)O1` (centres unmarked): 102 to 104 °C. Same read-out and setting: the same measure for `CCCN(C1=C(O)CC(CCc2ccc(O)cc2)(C(C)C)OC1=O)c1cccc2c(O)cccc12` (centres unmarked): 93 to 96 °C; for `CCN(C1=C(O)CC(CCc2ccc(O)cc2)(C(C)C)OC1=O)c1ccc2ccccc2c1` (centres unmarked): 97 to 99 °C. Still for that read-out and setting: the same measure for `CCN(C1=C(O)CC(CCc2ccc(O)cc2)(C(C)C)OC1=O)c1cccc2ccccc12` (centres unmarked): 86 to 88 °C; for `CC(C)C1(CCc2ccc(O)cc2)CC(O)=C(N(Cc2ccccc2)c2ccccc2)C(=O)O1` (centres unmarked): 75 to 77 °C; for `CCCCN(C1=C(O)CC(CCc2ccc(O)cc2)(C(C)C)OC1=O)c1ccccc1` (centres unmarked) [15]: 69 to 71 °C. With `CCCN(C1=C(O)CC(CCc2ccc(O)cc2)(C(C)C)OC1=O)c1cccc(CO)c1` (centres unmarked) [19], the melting point lay in the range of 61 to 63 °C.

In the case of `CCCN(C1=C(O)CC(CCc2ccc(O)cc2)(C(C)C)OC1=O)c1cccc(CO)c1` (centres unmarked) [32], the melting point fell in the range of 71 to 73 °C.

For the molecule `CCCN(C1=C(O)CC(CCc2ccccc2)(C(C)C)OC1=O)c1cccc(NS(=O)(=O)c2ccc(C(F)(F)F)cn2)c1` (centres unmarked) [Example 1, 5-Trifluoromethyl-pyridine-2-sulfonic acid {3-[(4-hydroxy-6-isopropyl-2-oxo-6-phenethyl-5,6-dihydro-2H-pyran-3-yl)-propyl-amino]-phenyl}-amide], in series [1], the Ki came to 0.029 nM. Besides, the EC50 in series [2] came out at 700 nM. The CC50 in series [3] was 63000 nM. The matching figures for `CCN(C1=C(O)CC(CCc2ccccc2)(C(C)C)OC1=O)c1cccc(NS(=O)(=O)c2ccc(C(F)(F)F)cn2)c1` (centres unmarked) [Example 3, 5-Trifluoromethyl-pyridine-2-sulfonic acid {3-[ethyl-(4-hydroxy-6-isopropyl-2-oxo-6-phenethyl-5,6-dihydro-2H-pyran-3-yl)-amino]-phenyl}-amide]: 0.96 nM, 1100 nM and 66000 nM. The matching figures for `CCCN(C1=C(O)CC(CCc2ccc(O)cc2)(C(C)C)OC1=O)c1cccc(NS(=O)(=O)c2ccc(C(F)(F)F)cn2)c1` (centres unmarked) [Example 4, 5-Trifluoromethyl-pyridine-2-sulfonic acid [3-({4-hydroxy-6-[2-(4-hydroxy-phenyl)-ethyl]-6-isopropyl-2-oxo-5,6-dihydro-2H-pyran-3-yl}-propyl-amino)-phenyl]-amide]: 0.01 nM, 1100 nM and 84000 nM.

For the molecule `CCCC1(CCc2ccc(O)cc2)CC(O)=C(N(CC)c2cccc(NS(=O)(=O)c3ccc(C(F)(F)F)cn3)c2)C(=O)O1` (centres unmarked) [Example 5, 5-Trifluoromethyl-pyridine-2-sulfonic acid [3-(ethyl-{4-hydroxy-6-[2-(4-hydroxy-phenyl)-ethyl]-2-oxo-6-propyl-5,6-dihydro-2H-pyran-3-yl}-amino)-phenyl]-amide], the inhibitory constant (Ki) in series [1] amounted to 0.17 nM. Besides, the EC50 in series [2] stood at 1300 nM. Besides, the CC50 in series [3] turned out to be 113000 nM. The matching figures for `CCN(C1=C(O)CC(CCc2ccc(O)cc2)(C(C)C)OC1=O)c1cccc(NS(=O)(=O)c2ccc(C(F)(F)F)cn2)c1` (centres unmarked) [Example 6, 5-Trifluoromethyl-pyridine-2-sulfonic acid [3-(ethyl-{4-hydroxy-6-[2-(4-hydroxy-phenyl)-ethyl]-6-isopropyl-2-oxo-5,6-dihydro-2H-pyran-3-yl}-amino)-phenyl]-amide]: 0.44 nM, 1300 nM and 133000 nM. The molecule `CCCN(C1=C(O)CC(CCc2ccc(O)cc2)(C(C)C)OC1=O)c1ccccc1` (centres unmarked) [Example 7, 4-Hydroxy-6-[2-(4-hydroxy-phenyl)-ethyl]-6-isopropyl-3-(phenyl-propyl-amino)-5,6-dihydro-pyran-2-one] gave a melting point of 171 to 173 °C. Moreover, the Ki in series [1] was 0.13 nM. Besides, the EC50 in series [2] came out at 1300 nM. In addition, the CC50 in series [3] came to 200000 nM. The matching figures for `CCCN(C1=C(O)CC(CCc2cccc(O)c2)(C2CCCC2)OC1=O)c1ccccc1` (centres unmarked) [Example 8, 6-Cyclopentyl-4-hydroxy-6-[2-(3-hydroxy-phenyl)-ethyl]-3-(phenyl-propyl-amino)-5,6-dihydro-pyran-2-one]: 74 to 76 °C, 0.35 nM, 1300 nM and 67000 nM. The matching figures for `CCCN(C1=C(O)CC(CCc2ccccc2CO)(C(C)C)OC1=O)c1ccccc1` (centres unmarked) [Example 9, 4-Hydroxy-6-[2-(2-hydroxymethyl-phenyl)-ethyl]-6-isopropyl-3-(phenyl-propyl-amino)-5,6-dihydro-pyran-2-one]: 58 to 60 °C, 2 nM, 1400 nM and 101000 nM.

For the molecule `CCCCN(C1=C(O)CC(CCc2ccc(O)cc2)(C(C)C)OC1=O)c1ccccc1` (centres unmarked) [Example 13, 3-(Butyl-phenyl-amino)-4-hydroxy-6-[2-(4-hydroxy-phenyl)-ethyl]-6-isopropyl-5,6-dihydro-pyran-2-one], the melting point is 196 to 198 °C. Further, the Ki in series [1] was determined as 0.2 nM. The EC50 in series [2] was 1500 nM. For the same molecule, the CC50 in series [3] was 156000 nM.

The values above are taken from patent US6512006B1, “HIV protease inhibitors” (Warner-Lambert Company, priority 1999, dated 2003).
